For 84 molecules, viability results are on record in paper PMC12040169 (PLOS Biology, 2025).

A short description of the data set: in vitro. Particulars: human, hela cells, % viability.

The term viability denotes a read-out of living cells in per cent, often relative to untreated cells. Regarding `CC(C)c1ccc(S(=O)(=O)NCCC2CCN(Cc3ccccc3)CC2)cc1` [CBK043456], the viability at 28.5 h, 10 µM is 94.5%.

Regarding `Cc1cc(C)cc(CNC(=O)NCCc2cccs2)c1` [CBK043459], the viability at 28.5 h, 10 µM is 103%.

As for `CCC(C)(C)c1ccc(S(=O)(=O)Nc2ccc3ncsc3c2)cc1` [CBK043490], the viability at 28.5 h, 10 µM was 113%.

Consider `CCC(O)CNS(=O)(=O)c1ccc(C(C)C)cc1` (stereo not drawn) [CBK043543], for which the viability at 28.5 h, 10 µM is 91.6%.

Consider `CC(C)c1ccc(S(=O)(=O)NCC(C)(C)CO)cc1` [CBK043547], for which the viability at 28.5 h, 10 µM was 110%.

Regarding `O=S(=O)(Nc1cccc(C(F)(F)F)c1)c1ccc(OC(F)(F)F)cc1` [CBK043554], the viability at 28.5 h, 10 µM was found to be 86.3%.

Regarding `N#CCCNS(=O)(=O)c1ccc(OC(F)(F)F)cc1` [CBK043560], the viability at 28.5 h, 10 µM worked out at 97.9%.

For `CC(C)c1ccc(S(=O)(=O)N(CCC#N)Cc2ccccc2)cc1` [CBK043565], the viability at 28.5 h, 10 µM stood at 90.7%.

Consider `CSc1ccc(NS(=O)(=O)c2ccc(NC(C)=O)c(Cl)c2)cc1` [CBK043566], for which the viability at 28.5 h, 10 µM amounted to 108%.

Consider `CCCCOC(=O)c1ccccc1NC(=O)NCCc1cccs1` [CBK043573], for which the viability at 28.5 h, 10 µM was 93.5%.

As for `CCOc1ccccc1CCNS(=O)(=O)c1ccc(Cl)c(Cl)c1` [CBK043610], the viability at 28.5 h, 10 µM worked out at 95.5%.

In the case of `CC(C)c1ccc(S(=O)(=O)NCCC(C)(C)C)cc1` [CBK043640], the viability at 28.5 h, 10 µM came out at 95.4%.

With `O=C(Nc1ccccc1Br)N1CCC2(CC1)OCCO2` [CBK043644], the viability at 28.5 h, 10 µM (bulk resorufin, single well) turned out to be 90.7%.

With `Cc1cc(S(=O)(=O)Nc2cccc(Br)c2)c(C)cc1Cl` [CBK043652], the viability at 28.5 h, 10 µM was determined as 80.8%.

Consider `Cc1cc(S(=O)(=O)NCCC#N)c(C)cc1Cl` [CBK043680], for which the viability at 28.5 h, 10 µM worked out at 113%.

Take `O=S(=O)(Nc1cnc2ccccc2c1)c1cccs1` [CBK043694]: the viability at 28.5 h, 10 µM amounted to 83%.

Turning to `O=C1OCc2ccc(NS(=O)(=O)c3ccc(OC(F)(F)F)cc3)cc21` [CBK043715], the viability at 28.5 h, 10 µM was 82.8%.

For `O=C(NCCc1cccs1)Nc1cc(C(F)(F)F)cc(C(F)(F)F)c1` [CBK043718], the viability at 28.5 h, 10 µM was 91.1%.

Consider `O=C(NCCC1=CCCCC1)Nc1ccc(SC(F)(F)F)cc1` [CBK043725], for which the viability at 28.5 h, 10 µM worked out at 85.7%.

As to `Cc1ccc(S(=O)(=O)N2CCC3(CC2)OCCO3)cc1Cl` [CBK043731], the viability at 28.5 h, 10 µM is 97.1%.

Regarding `CCOC(=O)CN1CCN(S(=O)(=O)c2ccc3ccccc3c2)CC1` [CBK043738], the viability at 28.5 h, 10 µM stood at 93.4%.

As to `CCCCOc1ccc(NC(=O)NCCC2=CCCCC2)cc1` [CBK043751], the viability at 28.5 h, 10 µM came out at 92.1%.

As for `O=C(NCCc1cccs1)Nc1cc(Cl)nc(Cl)c1` [CBK043762], the viability at 28.5 h, 10 µM was 87.2%.

Take `O=S(=O)(Nc1ccccn1)c1cccs1` [CBK043773]: the viability at 28.5 h, 10 µM amounted to 94.7%.

`CCCCNC(=O)N1CCN(c2ccccc2Cl)CC1` [CBK043777]: the viability at 28.5 h, 10 µM worked out at 106%.

As to `CCCCCNC(=O)NCCC1=CCCCC1` [CBK043796], the viability at 28.5 h, 10 µM worked out at 96.9%.

Take `Cc1cc(S(=O)(=O)NCc2cc(F)c(F)c(F)c2)c(C)cc1Cl` [CBK043813]: the viability at 28.5 h, 10 µM stood at 85%.

Turning to `O=S(=O)(Nc1cccc(O)c1)c1ccc(OC(F)(F)F)cc1` [CBK043822], the viability at 28.5 h, 10 µM stood at 108%.

On to `N#Cc1cccc(Cn2cc(NC(=O)NCCc3cccs3)cn2)c1` [CBK043824], for which the viability at 28.5 h, 10 µM turned out to be 94.9%.

With `COC(=O)c1ccc(Cn2cc(NC(=O)NCCc3cccs3)cn2)o1` [CBK043825], the viability at 28.5 h, 10 µM turned out to be 82.4%.

In the case of `CC(C)c1ccc(S(=O)(=O)Nc2cccnc2)cc1` [CBK043884], the viability at 28.5 h, 10 µM came out at 97.9%.

As for `COc1ccc(NS(=O)(=O)c2cccs2)c(OC)c1` [CBK043915], the viability at 28.5 h, 10 µM turned out to be 93%.

`O=C(NCCc1cccs1)Nc1cc(F)ccc1F` [CBK043935]: the viability at 28.5 h, 10 µM worked out at 113%.

As to `O=C(NCCc1cccs1)Nc1ccc(F)c(F)c1` [CBK043951], the viability at 28.5 h, 10 µM was determined as 87%.

Regarding `CCC(C)(C)c1ccc(S(=O)(=O)N(CCC#N)Cc2cccnc2)cc1` [CBK043960], the viability at 28.5 h, 10 µM turned out to be 89.6%.

As to `Cc1cc(S(=O)(=O)Nc2cc(C3CC3)nn2C)c(C)cc1Cl` [CBK043994], the viability at 28.5 h, 10 µM worked out at 111%.

In the case of `CCOC(=O)C(NS(=O)(=O)c1ccc(NC(C)=O)c(Cl)c1)C(=O)OCC` [CBK043996], the viability at 28.5 h, 10 µM came to 96.2%.

Consider `O=S(=O)(c1cnc(Cl)c(Br)c1)N1CCC2(CC1)OCCO2` [CBK044070], for which the viability at 28.5 h, 10 µM stood at 97.5%.

Take `COC(=O)CNC(=O)CNS(=O)(=O)c1ccc(C(C)=O)cc1` [CBK044117]: the viability at 28.5 h, 10 µM came to 89.1%.

On to `O=S(=O)(NCC1CCCO1)c1cccs1` (stereo not drawn) [CBK044263], for which the viability at 28.5 h, 10 µM amounted to 103%.

On to `CCCCNS(=O)(=O)c1ccc(Cl)c(Cl)c1` [CBK044309], for which the viability at 28.5 h, 10 µM worked out at 96.5%.

Regarding `COC[C@@H]1CCCN1S(=O)(=O)c1ccc(Cl)c(Cl)c1` [CBK044313], the viability at 28.5 h, 10 µM was 91.3%.

As for `CC(=O)c1ccc(S(=O)(=O)NCc2ccc(C(F)(F)F)cc2)cc1` [CBK044314], the viability at 28.5 h, 10 µM amounted to 108%.

Turning to `COC[C@@H]1CCCN1S(=O)(=O)c1ccc(OC(F)(F)F)cc1` [CBK044338], the viability at 28.5 h, 10 µM came to 92.4%.

For `O=S(=O)(Nc1cccc(Br)c1)c1ccc(OC(F)(F)F)cc1` [CBK044369], the viability at 28.5 h, 10 µM came out at 114%.

`CC1(C)COC(=O)N1C1CCN(C(=O)c2ccno2)CC1` [CBK044383]: the viability at 28.5 h, 10 µM turned out to be 95.7%.

As for `CCc1cc(Br)ccc1S(=O)(=O)NC1CCOC1=O` (stereo not drawn) [CBK044385], the viability at 28.5 h, 10 µM amounted to 97.5%.

As to `Cc1noc(C)c1Cn1cc(NS(=O)(=O)c2cccs2)cn1` [CBK044394], the viability at 28.5 h, 10 µM worked out at 97.9%.

For the molecule `CC(C)c1ccc(S(=O)(=O)N2CCN(c3ccc(C#N)cc3)CC2)cc1` [CBK044404], the viability at 28.5 h, 10 µM was 97.3%.

`N#CCCN(CC1CCCO1)S(=O)(=O)c1ccc(OC(F)(F)F)cc1` (stereo not drawn) [CBK044405]: the viability at 28.5 h, 10 µM turned out to be 91.5%.

Take `CN(CCC#N)S(=O)(=O)c1ccc(OC(F)(F)F)cc1` [CBK044415]: the viability at 28.5 h, 10 µM was 88.1%.

Consider `CC(C)c1ccc(S(=O)(=O)NCCc2ccccc2)cc1` [CBK044426], for which the viability at 28.5 h, 10 µM was 94.1%.

For `CC(=O)c1ccc(S(=O)(=O)NCC2CC2)cc1` [CBK044440], the viability at 28.5 h, 10 µM stood at 100%.

On to `O=S(=O)(c1cc(Cl)ccc1Cl)N1CCCN(Cc2ccccc2)CC1` [CBK044491], for which the viability at 28.5 h, 10 µM was 104%.

`CC1(C)COC(=O)N1C1CCN(C(=O)CNC(=O)c2cccs2)CC1` [CBK044501]: the viability at 28.5 h, 10 µM worked out at 93.1%.

As for `O=S(=O)(c1ccc(C(F)(F)F)cc1)N1CCC2(CC1)OCCO2` [CBK044520], the viability at 28.5 h, 10 µM was found to be 91.1%.

As for `Cc1cccc(C(C)(C)C)c1NC(=O)NCCc1cccs1` [CBK044530], the viability at 28.5 h, 10 µM came out at 98.9%.

Regarding `COC(=O)[C@H](CC1CCCCC1)NS(=O)(=O)c1ccc(C(C)C)cc1` [CBK044551], the viability at 28.5 h, 10 µM amounted to 96.3%.

For `CC(C)c1ccc(S(=O)(=O)Nc2cccc(SC(F)(F)F)c2)cc1` [CBK044581], the viability at 28.5 h, 10 µM was found to be 99.5%.

Turning to `CC(C)c1ccc(S(=O)(=O)Nc2ccon2)cc1` [CBK044584], the viability at 28.5 h, 10 µM stood at 115%.

Regarding `CCC(COC)NS(=O)(=O)c1ccc(C(C)C)cc1` (stereo not drawn) [CBK044587], the viability at 28.5 h, 10 µM was 108%.

For the molecule `Cc1cnc(CNS(=O)(=O)c2ccc(C(C)C)cc2)cn1` [CBK044615], the viability at 28.5 h, 10 µM came to 118%.

Regarding `O=S(=O)(Nc1cccc(Cl)c1)c1ccc(Cl)c(Cl)c1` [CBK044636], the viability at 28.5 h, 10 µM was 79.3%.

Turning to `Cc1cc(NS(=O)(=O)c2ccc(C(C)C)cc2)n[nH]1` [CBK044646], the viability at 28.5 h, 10 µM is 106%.

Regarding `CCOCCNS(=O)(=O)c1ccc(C(C)(C)CC)cc1` [CBK044655], the viability at 28.5 h, 10 µM was determined as 98.2%.

As for `CC(C)c1ccc(S(=O)(=O)NCc2csc3ccccc23)cc1` [CBK044662], the viability at 28.5 h, 10 µM stood at 96.6%.

Turning to `Cc1cc(Cl)ccc1CNS(=O)(=O)c1cccs1` [CBK044714], the viability at 28.5 h, 10 µM was determined as 97%.

Consider `CC(C)c1ccc(S(=O)(=O)NCc2ccc(F)c(F)c2F)cc1` [CBK044717], for which the viability at 28.5 h, 10 µM came out at 102%.

As for `CCCCCNC(=O)N1CCN(CC(=O)OCC)CC1` [CBK044786], the viability at 28.5 h, 10 µM was found to be 96.6%.

In the case of `CCc1cc(Br)ccc1S(=O)(=O)NCCCC(=O)OC` [CBK044788], the viability at 28.5 h, 10 µM was found to be 88.2%.

As for `CCCOCCCNS(=O)(=O)c1ccc(C(C)(C)CC)cc1` [CBK044821], the viability at 28.5 h, 10 µM is 106%.

Take `O=S(=O)(c1cccc(F)c1)N1CCC(Cc2ccccc2)CC1` [CBK044828]: the viability at 28.5 h, 10 µM came out at 102%.

On to `CCCCN(C)S(=O)(=O)c1ccc(C(C)(C)CC)cc1` [CBK044836], for which the viability at 28.5 h, 10 µM came out at 89.9%.

Take `CCOC(=O)C1CCCN(S(=O)(=O)c2cc(C)c(Cl)cc2C)C1` (stereo not drawn) [CBK044846]: the viability at 28.5 h, 10 µM came to 108%.

For `N#CCCCCn1cc(NC(=O)NCCc2cccs2)cn1` [CBK044855], the viability at 28.5 h, 10 µM came to 100%.

Consider `CCc1cc(Br)ccc1S(=O)(=O)NCCOc1ccccc1` [CBK044882], for which the viability at 28.5 h, 10 µM turned out to be 88.4%.

Turning to `CCc1cc(Br)ccc1S(=O)(=O)Nc1ccnn1CC` [CBK044900], the viability at 28.5 h, 10 µM was determined as 92.7%.

For the molecule `CCOC(=O)CC(C)NS(=O)(=O)c1ccc(OC(F)(F)F)cc1` (stereo not drawn) [CBK044954], the viability at 28.5 h, 10 µM was 104%.

With `CCN(CCc1ccccn1)S(=O)(=O)c1ccc(OC(F)(F)F)cc1` [CBK044968], the viability at 28.5 h, 10 µM turned out to be 92.4%.

Take `CCC(C)(C)c1ccc(S(=O)(=O)NCC2CC2)cc1` [CBK044994]: the viability at 28.5 h, 10 µM amounted to 93%.

For the molecule `CCc1cc(Br)ccc1S(=O)(=O)Nc1cccc2cccnc12` [CBK045012], the viability at 28.5 h, 10 µM turned out to be 87.8%.

`CC1(C)COC(=O)N1C1CCN(C(=O)CCS/C=C\c2ccccc2)CC1` [CBK045134]: the viability at 28.5 h, 10 µM was determined as 95.3%.

As for `Cc1ccc(C#N)c(NS(=O)(=O)c2cc(C)c(Cl)cc2C)c1` [CBK045250], the viability at 28.5 h, 10 µM amounted to 96.6%.

With `CC(=O)N(C)c1ccc(NS(=O)(=O)c2cc(C)c(Cl)cc2C)cc1` [CBK045298], the viability at 28.5 h, 10 µM is 94.3%.
